Drawing on patent US20190194179A1, “ANTIBIOTIC COMPOUNDS” (DISCUVA LTD., priority 2016, published 2019), this text covers IC50 for 42 compounds.

Counter-ions that a name gives are not always drawn.

The test system of this experiment is Neisseria gonorrhoeae. Put plainly: EC50 determination: plate-based broth growth assay (absorbance at 600 nm) of Neisseria gonorrhoeae. Type of experiment: cell-based. Particulars: absorbance 600 nm after 20 hours at 37° C./5% CO2, read-out: IC50 (Inhibitory concentration) against Neisseria gonorrhoeae. Here is the method:
Actively growing Neisseria gonorrhoeae on GC agar (based on; Spence et. al. (2008): Curr. Protoc. Microbiol. 8:4A.1.1-4A.1.26) plates are harvested and transferred to GC broth (based on; Spence et al (2008): Curr. Protoc. Microbiol. 8:4A.1.1-4A.1.26) to generate a liquid stock. This culture is allowed to establish and grow to mid-log phase (at 37° C./5% CO2), finally this culture is diluted (˜10^5 cells/ml) to generate a seed inoculum to establish plate-based broth assays. EC50 values were determined by assaying growth (absorbance read at 600 nm, after 20 hours at 37° C./5% CO2) of Neisseria gonorrhoeae across a 10-point dilution series of the test compound. The EC50 value is determined from transformed data to identify the concentration of compound giving a 50% response relative to control samples (no compound).

With `O=C(c1nnc(Nc2nc3c(Cl)cc(Cl)cc3o2)o1)N1CCCC1` [Example 133, (5-((4,6-Dichlorobenzo[d]oxazol-2-yl)amino)-1,3,4-oxadiazol-2-yl)(pyrrolidin-1-yl)methanone], the IC50 was not above 1 µM.
To `CN1CCN(c2cnc(Nc3nc4ccc(C(F)(F)F)cc4o3)s2)CC1` [Example 35, N-(5-(4-Methylpiperazin-1-yl)thiazol-2-yl)-6-(trifluoromethyl)benzo[d]oxazol-2-amine] belongs not above 1 µM; to `COCCn1c(C)nnc1Nc1nc2cc(C(F)(F)F)c(Cl)cc2o1` [Example 142, 6-Chloro-N-(4-(2-methoxyethyl)-5-methyl-4H-1,2,4-triazol-3-yl)-5-(trifluoromethyl)benzo[d]oxazol-2-amine], not above 1 µM; to `FC(F)(F)c1ccc2oc(Nc3nnc(CN4CCCCC4)o3)nc2c1` [Example 72, N-(5-(Piperidin-1-ylmethyl)-1,3,4-oxadiazol-2-yl)-5-(trifluoromethyl)benzo[d]oxazol-2-amine], not above 1 µM.
As to `c1nnc(Nc2nc3ccc(N4CCCCC4)cc3o2)o1` [Example 184, N-(1,3,4-Oxadiazol-2-yl)-6-(piperidin-1-yl)benzo[d]ox-azol-2-amine], the IC50 was not above 1 µM.
On to `O=C(c1csc(Nc2nc3cc(C(F)(F)F)ccc3o2)n1)N1CCNCC1` [Example 95, Piperazin-1-yl(2-((5-(trifluoromethyl)benzo[d]oxazol-2-yl)amino)thiazol-4-yl)methanone hydrochloride], for which the IC50 was not above 1 µM.
For `Cc1nnc(Nc2nc3cc(Cl)ccc3o2)o1` [Example 50, 5-Chloro-N-(5-methyl-1,3,4-oxadiazol-2-yl)benzo[d]oxazol-2-amine], the IC50 was not above 0.1 µM.
For `FC(F)(F)Oc1ccc2nc(Nc3nnco3)oc2c1` [Example 210, N-(1,3,4-Oxadiazol-2-yl)-6-(trifluoromethoxy) benzo[d]ox-azol-2-amine], the IC50 is not above 0.1 µM.
As to `Clc1ccc2nc(Nc3nnc(C4CC4)o3)oc2c1` [Example 175, 6-Chloro-N-(5-cyclopropyl-1,3,4-oxadiazol-2-yl)benzo[d]ox-azol-2-amine], the IC50 is not above 0.1 µM.
On to `Clc1cc2nc(Nc3nnco3)oc2cc1Cl` [Example 152, 5,6-Dichloro-N-(1,3,4-oxadiazol-2-yl)benzo[d]oxazol-2-amine], for which the IC50 was not above 0.1 µM.
For the compound `CCOC(=O)c1csc(Nc2nc3cc(C(F)(F)F)ccc3o2)n1` [Example 8, Ethyl 2-((5-(trifluoromethyl)benzo[d]oxazol-2-yl)amino)thiazole-4-carboxylate], the IC50 was not above 1 µM.
Take `Cn1c(Nc2nnco2)nc2ccc(Cl)cc21` [Example 92, N-(6-Chloro-1-methyl-1H-benzo[d]imidazol-2-yl)-1,3,4-oxadiazol-2-amine]: the IC50 was not above 100 µM.
To `Cc1cc2nc(Nc3nnco3)oc2cc1F` [Example 203, 6-Fluoro-5-methyl-N-(1,3,4-oxadiazol-2-yl)benzo[d]oxa-zol-2-amine] belongs not above 0.1 µM; to `Cc1nnc(Nc2nc3c(C)nccc3o2)o1` [Example 154, 4-Methyl-N-(5-methyl-1,3,4-oxadiazol-2-yl)oxazolo[4,5-c]pyridin-2-amine], not above 10 µM.
With `FC(F)(F)c1ccc2oc(Nc3nnc[nH]3)nc2c1` [Example 116, N-(4H-1,2,4-Triazol-3-yl)-5-(trifluoromethyl)benzo[d]oxazol-2-amine] the figure was not above 1 µM.
To `Cc1ccc2oc(Nc3nc(C(=O)NC4CC4)cs3)nc2c1` [Example 16, N-Cyclopropyl-2-((5-methylbenzo[d]oxazol-2-yl)amino)thiazole-4-carboxamide] belongs not above 1 µM.
Consider `Fc1cc2oc(Nc3nnco3)nc2cc1OC(F)(F)F` [Example 207, 6-Fluoro-N-(1,3,4-oxadiazol-2-yl)-5-(trifluoromethoxy) benzo[d]ox-azol-2-amine], for which the IC50 is not above 0.1 µM.
To `O=C(NC1CC1)c1nnc(Nc2nc3ccc(C(F)(F)F)cc3o2)o1` [Example 30, N-Cyclopropyl-5-((6-(trifluoromethyl)benzo[d]oxazol-2-yl)amino)-1,3,4-oxadiazol-2-carboxamide] belongs not above 100 µM.
For the compound `Cn1cc(Nc2nc3cc(C(F)(F)F)ccc3o2)nn1` [Example 12, N-(1-Methyl-1H-1,2,3-triazol-4-yl)-5-(trifluoromethyl)benzo[d]oxazol-2-amine], the IC50 was not above 10 µM.
With `Cc1nnc(Nc2nc3cc(Cl)ccc3[nH]2)o1` [Example 85, N-(5-Chloro-1H-benzo[d]imidazol-2-yl)-5-methyl-1,3,4-oxadiazol-2-amine] the figure was not above 1 µM.
Take `FC(F)(F)Oc1cc2oc(Nc3nnco3)nc2cc1Cl` [Example 191]: the IC50 was not above 0.1 µM.
With `CC(C)c1nnc(Nc2nc3cc(C(F)(F)F)ccc3o2)o1` [Example 108, N-(5-Isopropyl-1,3,4-oxadiazol-2-yl)-5-(trifluoromethyl)benzo[d]oxazol-2-amine] the figure was not above 1 µM; with `FC(F)(F)c1ccc2nc(Nc3ncc(N4CCCCC4)s3)oc2c1` [Example 28, N-(5-(Piperidin-1-yl)thiazol-2-yl)-6-(trifluoromethyl)benzo[d]oxazol-2-amine], not above 1 µM; with `FC(F)(F)c1ccc2nc(Nc3ncc(N4CCNCC4)s3)oc2c1` [Example 49, N-(5-(Piperazin-1-yl)thiazol-2-yl)-6-(trifluoromethyl)benzo[d]oxazol-2-amine hydrochloride], not above 1 µM.
To `Fc1cc2nc(Nc3nnco3)oc2cc1OC(F)(F)F` [Example 174, 5-Fluoro-N-(1,3,4-oxadiazol-2-yl)-6-(trifluoromethoxy)benzo[d]oxazol-2-amine] belongs not above 0.1 µM.
To `Cc1cnc(Nc2nc3cc(C(F)(F)F)ccc3o2)o1` [Example 112, N-(5-Methyloxazol-2-yl)-5-(trifluoromethyl)benzo[d]oxazol-2-amine] belongs not above 1 µM.
As to `FC(F)(F)c1ccc2oc(Nc3nncs3)nc2c1` [Example 14, N-(1,3,4-Thiadiazol-2-yl)-5-(trifluoromethyl)benzo[d]oxazol-2-amine], the IC50 was not above 1 µM.
To `Cc1nnc(Nc2nc3c(C)cc(Cl)cc3o2)[nH]1` [Example 141, 6-Chloro-4-methyl-N-(5-methyl-4H-1,2,4-triazol-3-yl)benzo[d]oxazol-2-amine] belongs not above 1 µM; to `Clc1ccc2nc(Nc3nncs3)oc2c1` [Example 151, 6-Chloro-N-(1,3,4-thiadiazol-2-yl)benzo[d]oxazol-2-amine], not above 1 µM.
For the compound `Cc1nnc(Nc2nc3cc(C(F)(F)F)ccc3n2C)o1` [Example 88, 5-Methyl-N-(1-methyl-5-(trifluoromethyl)-1H-benzo[d]imidazol-2-yl)-1,3,4-oxadiazol-2-amine], the IC50 is not above 1 µM.
To `Clc1ccc2nc(Nc3ncno3)oc2c1` [Example 224, 6-chloro-N-(1,2,4-oxadiazol-5-yl)benzo[d]oxazol-2-amine] belongs not above 100 µM.
To `NC(=O)c1csc(Nc2nc3cc(Cl)ccc3o2)n1` [Example 99, 2-((5-Chlorobenzo[d]oxazol-2-yl)amino)thiazole-4-carboxamide] belongs not above 1 µM; to `O=C(Nc1ccccc1)c1csc(Nc2nc3cc(C(F)(F)F)ccc3o2)n1` [Example 5, N-Phenyl-2-((5-(trifluoromethyl)benzo[d]oxazol-2-yl)amino)thiazole-4-carboxamide], not above 1 µM; to `CCOC(=O)c1nnc(Nc2nc3cc(C(F)(F)F)c(Cl)cc3o2)o1` [Example 65, Ethyl 5-((6-chloro-5-(trifluoromethyl)benzo[d]oxazol-2-yl)amino)-1,3,4-oxadiazole-2-carboxylate], not above 0.1 µM.
To `O=C(O)c1ccc2nc(Nc3nnco3)oc2c1` [Example 192, 2-((1,3,4-oxadiazol-2-yl)amino)benzo[d]oxazole-6-carboxylic acid] belongs not above 10 µM; to `O=C(Nc1cccc(Cl)c1)c1csc(Nc2nc3cc(C(F)(F)F)ccc3o2)n1` [Example 10, N-(3-Chlorophenyl)-2-((5-(trifluoromethyl)benzo[d]oxazol-2-yl)amino)thiazole-4-carboxamide], not above 1 µM; to `Cc1nccc2oc(Nc3nc4ccccc4o3)nc12` [Example 171, N-(Benzo[d]oxazol-2-yl)-4-methyloxazolo[4,5-c]pyridin-2-amine], not above 1 µM.
Turning to `FC1CCN(Cc2nnc(Nc3nc4cc(C(F)(F)F)ccc4o3)o2)C1` (stereo not drawn) [Example 79, N-(5-((3-Fluoropyrrolidin-1-yl)methyl)-1,3,4-oxadiazol-2-yl)-5-(trifluoromethyl)benzo[d]oxazol-2-amine], the IC50 was not above 1 µM.
To `Clc1cccc2oc(Nc3nnco3)nc12` [Example 120, 4-Chloro-N-(1,3,4-oxadiazol-2-yl)benzo[d]oxazol-2-amine] belongs not above 1 µM.
To `Cc1nnc(Nc2nc3c(C(F)(F)F)cccc3o2)o1` [Example 118, N-(5-Methyl-1,3,4-oxadiazol-2-yl)-4-(trifluoromethyl)benzo[d]oxazol-2-amine] belongs not above 10 µM.
Regarding `O=C(NC1CC1)c1cnc(Nc2nc3cc(C(F)(F)F)ccc3o2)s1` [Example 37, N-Cyclopropyl-2-((5-(trifluoromethyl)benzo[d]oxazol-2-yl)amino)thiazole-5-carboxamide], the IC50 is not above 10 µM.
To `Clc1ccc2nc(Nc3nnc(CN4CCCC4)o3)oc2c1` [Example 77, 6-Chloro-N-(5-(pyrrolidin-1-ylmethyl)-1,3,4-oxadiazol-2-yl)benzo[d]oxazol-2-amine] belongs not above 0.1 µM.
